These results are taken from patent publication US20160045513A1, “ISOXAZOLE COMPOUND FOR THE TREATMENT OF CANCER” (Novartis AG, priority 2007, published 2016).

In assay [1] the test system is CXF 1103. Briefly: clonogenic assay, human tumor xenografts in vitro. The format is cell-based. Particulars: CXF1103, Colon, CXF 1103, Adeno carcinoma, soft agar, read-out: IC50 (nM), colony formation. As for the experimental part: (§1) The anticancer activity of 5-(2,4-Dihydroxy-5-isopropyl-phenyl)-4-(4-morpholin-4-ylmethyl-phenyl)-isoxazole-3-carboxylic acid ethylamide is evaluated in 30 human tumor xenografts in vitro using a clonogenic assay. In this assay, human cells derived from cancer patients are evaluated for the capacity of 5-(2,4-Dihydroxy-5-isopropyl-phenyl)-4-(4-morpholin-4-ylmethyl-phenyl)-isoxazole-3-carboxylic acid ethylamide to inhibit the formation of 3 dimensional colonies. […] The tumor xenografts which have never been cultured in cell culture plastic dishes are isolated from nude mice. Tumor cell suspensions are prepared and incubated in 24 well plates containing layers of soft agar. Under these conditions a special subpopulation of cells selectively grows to colonies. 5-(2,4-Dihydroxy-5-isopropyl-phenyl)-4-(4-morpholin-4-ylmethyl-phenyl)-isoxazole-3-carboxylic acid ethylamide was tested in 6 concentrations up to […]. The tumor test panel comprises 1 to 6 models of 10 different human tumor or cancer types, which were bladder cancer, colon, liver, non small cell lung (adeno, squamous epithelium and large cell), small cell lung, mammary, ovary, pancreatic, melanoma and pleuramesothelioma. Antitumor effects are recorded as inhibition of colony formation in relation to untreated controls. Further information on the method has been published (Burger et al., 2004; Fiebig et al., 2004; Smith et al., 2005).
(§2) The cells are continually exposed to 5-(2,4-Dihydroxy-5-isopropyl-phenyl)-4-(4-morpholin-4-ylmethyl-phenyl)-isoxazole-3-carboxylic acid ethylamide and colony formation is determined.
A general note: In xenograft studies the graft and the host belong to different species.

For assay [2], the system named is CXF 158. The experiment in a line: clonogenic assay, human tumor xenografts in vitro. Particulars: CXF158, Colon, CXF 158, Adeno carcinoma, soft agar, read-out: IC50 (nM), colony formation. The format is cell-based. The procedure:
as §1, §2

Assay [3] relates to CXF 1784. The experiment in a line: clonogenic assay, human tumor xenografts in vitro. The format is cell-based. Particulars: Colon, CXF 1784, Carcinoma, soft agar, read-out: IC50 (nM), colony formation. As for the experimental part: as §1, §2
For assay [4], the system named is LXFL 1647. Briefly: clonogenic assay, human tumor xenografts in vitro. It counts as cell-based. Particulars: Lung, non-small cell, LXFL 1647, Large cell lung carcinoma, soft agar, read-out: IC50 (nM), colony formation. As for the experimental part:
as §1, §2

For assay [5], the system named is LXFS 615. The experiment in a line: clonogenic assay, human tumor xenografts in vitro. The settings on record: Lung, small cell, LXFS 615, Small cell lung carcinoma, soft agar, read-out: IC50 (nM), colony formation. It counts as cell-based. The procedure: as §1, §2
Assay [6] has as its system MAXF 1322. Briefly: clonogenic assay, human tumor xenografts in vitro. The format is cell-based. The settings on record: Breast, MAXF 1322, Pap. adeno carcinoma, soft agar, read-out: IC50 (nM), colony formation. As for the experimental part:
as §1, §2

Assay [7] deals with MEXF 1539. The experiment in a line: clonogenic assay, human tumor xenografts in vitro. The format is cell-based. The settings on record: Melanoma, MEXF 1539, Melanoma, soft agar, read-out: IC50 (nM), colony formation. The procedure: as §1, §2
Assay [8] concerns MEXF 462. The experiment in a line: clonogenic assay, human tumor xenografts in vitro. It counts as cell-based. Particulars: Melanoma, MEXF 462, Amelanotic melanoma, soft agar, read-out: IC50 (nM), colony formation. As for the experimental part:
as §1, §2

In assay [9] the test system is MEXF 535. Briefly: clonogenic assay, human tumor xenografts in vitro. The format is cell-based. Particulars: Melanoma, MEXF 535, Amelanotic melanoma, soft agar, read-out: IC50 (nM), colony formation. The procedure: as §1, §2
The subject of assay [10] is MEXF 672. The experiment in a line: clonogenic assay, human tumor xenografts in vitro. Particulars: Melanoma, MEXF 672, Amelanotic melanoma, soft agar, read-out: IC50 (nM), colony formation. The format is cell-based. As for the experimental part:
as §1, §2

The subject of assay [11] is MEXF 989. The experiment in a line: clonogenic assay, human tumor xenografts in vitro. Particulars: Melanoma, MEXF 989, Amelanotic melanoma, soft agar, read-out: IC50 (nM), colony formation. It counts as cell-based. The procedure:
as §1, §2

The test system of assay [12] is OVXF 1353. Briefly: clonogenic assay, human tumor xenografts in vitro. The format is cell-based. Particulars: Ovary, OVXF 1353, Adeno carcinoma, soft agar, read-out: IC50 (nM), colony formation. As for the experimental part:
as §1, §2

Assay [13] relates to PAXF 1657. Briefly: clonogenic assay, human tumor xenografts in vitro. The format is cell-based. Particulars: Pancreas, PAXF 1657, Adeno carcinoma, soft agar, read-out: IC50 (nM), colony formation. As for the experimental part: as §1, §2
In assay [14] the test system is PXF 1118. Briefly: clonogenic assay, human tumor xenografts in vitro. It counts as cell-based. The settings on record: Pleuramesothelioma, PXF 1118, Biphasic pleuramesothelioma, soft agar, read-out: IC50 (nM), colony formation. As for the experimental part:
as §1, §2

Assay [15] deals with BT-474 xenograft. Briefly: antitumor effect in the human breast cancer model BT-474. The format is in vivo, mouse. Particulars: for T/C (%) / ΔTumor volume (mm^3): qw, i.v., 21 days treatment; for ΔTumor volume (mm^3): mean ±SEM. As for the experimental part: The estrogen receptor positive cell line BT-474 was initially isolated from a human breast ductal carcinoma established from a solid, invasive ductal carcinoma of the breast obtained from a person (ATCC number HTB-20). The cells are grown in DMEM high glucose (4.5 g/l) supplemented with 10% FCS, […] and 1% sodium pyruvate. In preparation for cell inoculation, each mouse is subcutaneously implanted on the upper dorsal side with a 17β-Estradiol pellet (25 μg/day; 90 day release) using a trocar needle. BT-474 cells (5×10̂6) are injected in 200 μl Matrigel:HBSS (1:1 vol) (BD MatrigelTM Basement Membrane Matrix). The injection site is subcutaneously in the right flank. […] Tumor growth is monitored at regular intervals. The xenograft tumor sizes are measured manually with calipers and the tumor volume is estimated using the formula: (W×L×H×π/6), where width (W), height (H) and length (L) are the three largest diameters. Results are presented as mean ±SEM. Tumor data are analyzed by ANOVA with post hoc Dunnet's test for comparison of treatment versus control group. As a measure of efficacy the % T/C value is calculated at the end of the experiment according to: (Δtumor volumetreated/Δtumor volumecontrol)*100 where Δtumor volumes represent the mean tumor volume on the evaluation day minus the mean tumor volume at the start of the experiment. The antitumor effect of AUY922 is evaluated in the BT-474 xenograft model. In this study, the treatment period is 21 days. Each group consists of eight tumor bearing animals. At the end of the study, the tumor sizes in the treatment groups are compared to those of the vehicle treated groups and the effect is expressed as % T/C.

As for `CCNC(=O)c1noc(-c2cc(C(C)C)c(O)cc2O)c1-c1ccc(CN2CCOCC2)cc1` [AUY922, 5-(2,4-Dihydroxy-5-isopropyl-phenyl)-4-(4-morpholin-4-ylmethyl-phenyl)-isoxazole-3-carboxylic acid ethylamide], the IC50 – broadly, the concentration needed to halve the response being measured – was 13 nM in assay [1]; 369 nM in [2]; 418 nM in assay [3]; 34 nM in assay [4]; 30 nM in assay [5]; 29 nM in assay [6]. The IC50 in assay [7] stood at 3 nM; in assay [8] it was 24 nM; in assay [9], 43 nM; in assay [10] it was 18 nM; in assay [11], 2 nM; in assay [12] it was 26 nM. The figures for the 50% inhibitory concentration (IC50) in [13] and in [14] were 39 nM and 223 nM, respectively. Also, the “T/C (%)” value in assay [15] (8.3 mg/kg) was 43%; in [15] (17 mg/kg), 9%; in assay [15] (25 mg/kg), 3%. Also, the “ΔTumor volume (mm^3)” value in assay [15] (8.3 mg/kg) is 229 ± 73 mm^3; in assay [15] (17 mg/kg, *P < 0.05), 46 ± 27* mm^3; in [15] (25 mg/kg, *P < 0.05), 15 ± 23* mm^3. In assay [15] (once per week at 17-25 mg/kg), the “reduction of tumor sizes versus vehicle” value was “Statistically significant reduction of tumor sizes”.
